Tested on: VE-cadherin and Claudin-5 in pHUVECs
Assay: Immunofluorescence of VE-cadherin and Claudin-5 junctional staining in pHUVECs treated with COVID-19 patient plasma
Format: cell-based, human
Details: co-treatment with moderate or severe COVID-19 plasma, six hours

Q: Which “disruption of the EC barrier, as examined through junctional protein expression (VE-cadherin, Claudin-5)” value does the source give for Nangibotide here?
A: could maintain junctional protein expression

— patent publication US20230194530A1, “CIRCULATING CARDIOVASCULAR BIOMARKERS AND VASCULAR STABILIZING THERAPY” (priority 2021, published 2023)
